Laboratory results reported in patent publication US20200128830A1, “FUSED BICYCLIC HETEROCYCLE DERIVATIVES AS PESTICIDES” (Bayer Aktiengesellschaft, priority 2017, published 2020).

Experiments:
Format in all cases: in vivo
[1] = test system: Lucilia cuprina; assay: Lucilia cuprina test; conditions: application rate 100 ppm; L1 larvae on minced horsemeat; after 2 days
Method: Lucilia cuprina Test Solvent: Dimethyl Sulfoxide To produce a suitable active compound formulation, 10 mg of active compound are mixed with 0.5 ml of dimethyl sulfoxide, and the concentrate is diluted with water to the desired concentration. About 20 L1 larvae of the Australian sheep blowfly (Lucilia cuprina) are transferred into a test vessel containing minced horsemeat and the active compound preparation of the desired concentration. After 2 days, the kill in % is determined. 100% means that all the larvae have been killed; 0% means that no larvae have been killed.

[2] = test system: Myzus persicae; assay: Myzus persicae oral test; conditions: 120 h, mixed population of green peach aphids, after 5 days, read-out: efficacy; for pest or weed control at 4 ppm: application rate 4 ppm
Method: Myzus persicae—Oral Test [table] To produce a suitable active compound formulation, 1 part by weight of active compound is dissolved with the stated parts by weight of solvent and made up to the desired concentration with water. 50 μl of the active compound formulation are transferred into microtitre plates and made up to a final volume of 200 μl with 150 μl of IPL41 insect medium (33%+15% sugar). Subsequently, the plates are sealed with parafilm, which a mixed population of green peach aphids (Myzus persicae) within a second microtitre plate is able to puncture and imbibe the solution. After 5 days, the efficacy in % is determined. 100% means that all the aphids have been killed; 0% means that no aphids have been killed.

[3] = test system: Phaedon cochleariae; assay: Phaedon cochleariae spray test; conditions: foliar, 168 h, application rate 100 g/ha, larvae on Chinese cabbage leaf discs, after 7 days, read-out: efficacy
Method: Phaedon cochleariae—Spray Test
(§1) To produce a suitable active compound formulation, 1 part by weight of active compound is dissolved with the specified parts by weight of solvent and made up to the desired concentration with water containing an emulsifier concentration of 1000 ppm. To produce further test concentrations, the formulation is diluted with emulsifier-containing water.
Discs of Chinese cabbage leaves (Brassica pekinensis) are sprayed with an active compound formulation of the desired concentration and, after drying, populated with larvae of the mustard beetle (Phaedon cochleariae).
After 7 days, the efficacy in % is determined. 100% means that all the beetle larvae have been killed; 0% means that no beetle larvae have been killed.

[4] = test system: Spodoptera frugiperda; assay: Spodoptera frugiperda spray test; conditions: foliar, 168 h, application rate 100 g/ha, caterpillars on maize leaf discs, after 7 days, read-out: efficacy
Method: Spodoptera frugiperda—Spray Test [table] To produce a suitable active compound formulation, 1 part by weight of active compound is dissolved with the specified parts by weight of solvent and made up to the desired concentration with water containing an emulsifier concentration of 1000 ppm. To produce further test concentrations, the formulation is diluted with emulsifier-containing water. Leaf discs of maize (Zea mays) are sprayed with an active compound formulation of the desired concentration and, after drying, populated with caterpillars of the fall armyworm (Spodoptera frugiperda). After 7 days, the efficacy in % is determined. 100% means that all the caterpillars have been killed; 0% means that no caterpillar has been killed.

[5] = test system: Myzus persicae; assay: Myzus persicae spray test; conditions: foliar, 120 h, application rate 100 g/ha, Chinese cabbage leaf discs infested by all stages, after 5 days, read-out: efficacy
Method: Myzus persicae—Spray Test [table] To produce a suitable active compound formulation, 1 part by weight of active compound is dissolved with the specified parts by weight of solvent and made up to the desired concentration with water containing an emulsifier concentration of 1000 ppm. To produce further test concentrations, the formulation is diluted with emulsifier-containing water. Discs of Chinese cabbage leaves (Brassica pekinensis) infested by all stages of the green peach aphid (Myzus persicae) are sprayed with an active compound formulation of the desired concentration. After 5 days, the efficacy in % is determined. 100% means that all the aphids have been killed; 0% means that no aphids have been killed.

[6] = test system: Ctenocephalides felis; assay: Ctenocephalides felis oral test; conditions: application rate 100 ppm in citrated cattle blood; unfed adult cat fleas; after 2 days
Method: Ctenocephalides felis—Oral Test Solvent: Dimethyl Sulfoxide To produce a suitable active compound formulation, 10 mg of active compound are mixed with 0.5 ml of dimethyl sulfoxide. Dilution with citrated cattle blood gives the desired concentration. About 20 unfed adult cat fleas (Ctenocephalides felis) are placed into a chamber which is closed at the top and bottom with gauze. A metal cylinder whose bottom end is closed with parafilm is placed onto the chamber. The cylinder contains the blood/active compound formulation, which can be imbibed by the fleas through the parafilm membrane. After 2 days, the kill in % is determined. 100% means that all of the fleas have been killed; 0% means that none of the fleas have been killed.

[7] = test system: Musca domestica; assay: Musca domestica test; conditions: application rate 100 ppm; adult houseflies, sponge with sugar solution; after 2 days
Method: Musca domestica Test Solvent: Dimethyl Sulfoxide To produce a suitable active compound formulation, 10 mg of active compound are mixed with 0.5 ml of dimethyl sulfoxide, and the concentrate is diluted with water to the desired concentration. Vessels containing a sponge treated with sugar solution and the desired concentration of active compound formulation are populated with 10 adult houseflies (Musca domestica). After 2 days, the kill in % is determined. 100% means that all of the flies have been killed; 0% means that none of the flies have been killed.

[8] = test system: Tetranychus urticae; assay: Tetranychus urticae spray test, OP-resistant; conditions: application rate 100 g/ha, bean leaf discs infested with all stages, after 6 days
Method: Tetranychus urticae—Spray Test, OP-Resistant
as §1
Discs of bean leaves (Phaseolus vulgaris) infested with all stages of the greenhouse red spider mite (Tetranychus urticae) are sprayed with an active compound formulation of the desired concentration.
After 6 days, the efficacy in % is determined. 100% means that all the spider mites have been killed; 0% means that no spider mites have been killed.

CCS(=O)(=O)c1c(-c2nc3cc(C(F)(F)F)ncc3n2C)sc2ccsc12 [I-1]
efficacy (kill in %) [1]: 100% | pest or weed control at 4 ppm [2]: 100%

CCS(=O)(=O)c1c(-c2nc3cc(C(F)(F)F)ncc3n2C)sc2ccoc12 [I-2, 2-[6-(Ethylsulfonyl)thieno[3,2-b]furan-5-yl]-3-methyl-6-(trifluoromethyl)-3H-imidazo[4,5-c]pyridine]
efficacy (kill in %) [1]: 100% | pest or weed control at 4 ppm [2]: 100%

CCS(=O)(=O)c1c(-c2nc3cc(C(F)(F)F)ncc3n2C)sc2cc(C(F)(F)F)sc12 [I-3, 2-[3-(Ethylsulfonyl)-5-(trifluoromethyl)thieno[3,2-b]thiophen-2-yl]-3-methyl-6-(trifluoromethyl)-3H-imidazo[4,5-c]pyridine]
pest or weed control at 4 ppm [2]: 100% | pest or weed control at 100 g/ha [3]: 100% | pest or weed control at 100 g/ha [4]: 100%

CCS(=O)(=O)c1c(-c2nc3cc(C(F)(F)F)ncc3n2C)sc2c1CCC2 [I-4, 2-[3-(Ethylsulfonyl)-5,6-dihydro-4H-cyclopenta[b]thiophen-2-yl]-3-methyl-6-(trifluoromethyl)-3H-imidazo[4,5-c]pyridine]
efficacy (kill in %) [1]: 90% | pest or weed control at 4 ppm [2]: 100%

CCS(=O)(=O)c1c(-c2nc3cc(C(F)(F)F)ncc3n2C)sc2c(C#N)csc12 [I-5, 6-(Ethylsulfonyl)-5-[3-methyl-6-(trifluoromethyl)-3H-imidazo[4,5-c]pyridin-2-yl]thieno[3,2-b]thiophene-3-carbonitrile]
pest or weed control at 4 ppm [2]: 100%

CCS(=O)(=O)c1c(-c2nc3cc(C(F)(F)F)ncc3n2C)sc2c(NC(C)=O)csc12 [I-6, N-{6-(Ethylsulfonyl)-5-[3-methyl-6-(trifluoromethyl)-3H-imidazo[4,5-c]pyridin-2-yl]thieno[3,2-b]thiophen-3-yl}acetamide]
pest or weed control at 100 g/ha [5]: 90%

CCS(=O)(=O)c1c(-c2nc3cc(C(F)(F)F)ncc3n2C)sc2cc(C(F)(F)F)sc12 [I-7]
efficacy (kill in %) [6]: 95% | efficacy (kill in %) [7]: 80% | pest or weed control at 100 g/ha [5]: 100% | efficacy [8]: 90%

CCS(=O)(=O)c1c(-c2nc3cc(C(F)(F)F)ncc3n2C)sc2c(Br)csc12 [I-8, 2-[6-Bromo-3-(ethylsulfonyl)thieno[3,2-b]thiophen-2-yl]-3-methyl-6-(trifluoromethyl)-3H-imidazo[4,5-c]pyridine]
pest or weed control at 4 ppm [2]: 100% | pest or weed control at 100 g/ha [4]: 100%

CCS(=O)(=O)c1c(-c2nc3cc(C(F)(F)F)nnc3n2C)sc2nc(C(F)(F)F)sc12 [I-9]
pest or weed control at 4 ppm [2]: 100% | pest or weed control at 100 g/ha [3]: 100% | pest or weed control at 100 g/ha [4]: 100%

CCS(=O)(=O)c1c(-c2nc3cc(C(F)(F)F)ncc3n2C)sc2c(-c3cnn(C)c3)csc12 [I-11, 2-[3-(Ethylsulfonyl)-6-(1-methyl-1H-pyrazol-4-yl)thieno[3,2-b]thiophen-2-yl]-3-methyl-6-(trifluoromethyl)-3H-imidazo[4,5-c]pyridine]
pest or weed control at 4 ppm [2]: 90% | pest or weed control at 100 g/ha [5]: 90% | pest or weed control at 100 g/ha [3]: 83%

CCS(=O)(=O)c1c(-c2nc3cc(C(F)(F)F)ncc3n2C)sc2nc(C(F)(F)F)oc12 [I-12]
efficacy (kill in %) [6]: 80% | efficacy (kill in %) [7]: 85% | pest or weed control at 4 ppm [2]: 100% | pest or weed control at 100 g/ha [5]: 100% | pest or weed control at 100 g/ha [3]: 100% | pest or weed control at 100 g/ha [4]: 100% | efficacy [8]: 90%

CCS(=O)(=O)c1c(-c2nc3cc(C(F)(F)F)cnc3n2C)sc2nc(C(F)(F)F)sc12 [I-13]
pest or weed control at 4 ppm [2]: 90% | pest or weed control at 100 g/ha [3]: 100% | pest or weed control at 100 g/ha [4]: 100%

CCS(=O)(=O)c1c(-c2nc3cc(C(F)(F)C(F)(F)F)ncc3n2C)sc2nc(C(F)(F)F)sc12 [I-14]
pest or weed control at 4 ppm [2]: 90% | pest or weed control at 100 g/ha [5]: 90% | pest or weed control at 100 g/ha [3]: 100% | pest or weed control at 100 g/ha [4]: 100%

CCS(=O)(=O)c1c(-c2nc3cc(C(F)(F)F)ncc3n2C)sc2c(C(N)=O)csc12 [I-15, 6-(Ethylsulfonyl)-5-[3-methyl-6-(trifluoromethyl)-3H-imidazo[4,5-c]pyridin-2-yl]thieno[3,2-b]thiophene-3-carboxamide]
pest or weed control at 4 ppm [2]: 100% | pest or weed control at 100 g/ha [5]: 90% | efficacy [8]: 90%

CCS(=O)(=O)c1c(-c2nc3cc(C(F)(F)F)ncc3n2C)sc2c(-c3ccccc3)csc12 [I-16, 2-[3-(Ethylsulfonyl)-6-phenylthieno[3,2-b]thiophen-2-yl]-3-methyl-6-(trifluoromethyl)-3H-imidazo[4,5-c]pyridine]
pest or weed control at 4 ppm [2]: 100% | pest or weed control at 100 g/ha [5]: 90% | pest or weed control at 100 g/ha [4]: 100%

CCS(=O)(=O)c1c(-c2nc3cc(C(F)(F)F)nnc3n2C)sc2cc(C(F)(F)F)sc12 [I-18]
efficacy (kill in %) [6]: 100% | efficacy (kill in %) [7]: 80% | pest or weed control at 4 ppm [2]: 100% | pest or weed control at 100 g/ha [5]: 100% | pest or weed control at 100 g/ha [3]: 100% | pest or weed control at 100 g/ha [4]: 100%

CCS(=O)(=O)c1c(-c2nc3cc(C(F)(F)F)ncc3n2C)sc2c(NC(=O)C3CC3)csc12 [I-19]
pest or weed control at 0.8 ppm ([2]; application rate 0.8 ppm): 100%

CCS(=O)(=O)c1c(-c2nc3cc(C(F)(F)F)ncc3n2C)sc2c(-n3cc(Cl)cn3)csc12 [I-20, 2-[6-(4-Chloro-1H-pyrazol-1-yl)-3-(ethylsulfonyl)thieno[3,2-b]thiophen-2-yl]-3-methyl-6-(trifluoromethyl)-3H-imidazo[4,5-c]pyridine]
pest or weed control at 4 ppm [2]: 100% | pest or weed control at 100 g/ha [3]: 100% | pest or weed control at 100 g/ha [4]: 100%

CCS(=O)(=O)c1c(-c2nc3cc(C(F)(F)F)ncc3n2C)sc2c(-n3cnc(C(F)(F)F)c3)csc12 [I-21]
pest or weed control at 4 ppm [2]: 100% | pest or weed control at 100 g/ha [5]: 90% | pest or weed control at 100 g/ha [3]: 100% | pest or weed control at 100 g/ha [4]: 100%

CCS(=O)(=O)c1c(-c2nc3cc(C(F)(F)F)ncc3n2C)sc2cc(C)sc12 [I-22]
pest or weed control at 4 ppm [2]: 100% | pest or weed control at 100 g/ha [5]: 90%

CCS(=O)(=O)c1c(-c2nc3cc(C(F)(F)F)ncc3n2C)sc2c(C3CC3)csc12 [I-23]
pest or weed control at 4 ppm [2]: 100% | pest or weed control at 100 g/ha [4]: 100%

CCS(=O)(=O)c1c(-c2nc3cc(C(F)(F)F)ncc3n2C)sc2c(C(=O)NC)csc12 [I-24]
pest or weed control at 4 ppm [2]: 100% | pest or weed control at 100 g/ha [5]: 90%

CCS(=O)(=O)c1c(-c2nc3cc(C(F)(F)F)ncc3n2C)sc2cc(Cl)sc12 [I-25]
pest or weed control at 4 ppm [2]: 100% | pest or weed control at 100 g/ha [5]: 90% | pest or weed control at 100 g/ha [4]: 100%

CCS(=O)(=O)c1c(-c2nc3cc(C(F)(F)F)ncc3n2C)sc2c1C(=O)CC2 [I-30]
efficacy [8]: 90%
